The source of these data is patent US12486218B2, “Compounds advantageous in the treatment of central nervous system diseases and disorders” (AurimMed Pharma, Inc., priority 2008, dated 2025).

The subject of data set [1] is SMN2 promoter. Description: SMN2 promoter β-lactamase reporter assay in NSC34 motor neuron-like cells. In kind it is cell-based. The method, then: FIG. 30 illustrates a screen for SMN2 expression of a number of compounds described herein.
SMN2 promoter activity was measured using NSC34 motor neuron-like cells stably transfected with a β-lactamase (BLA) reporter gene under the control of a 3.4-kilobase fragment of the SMN2 promoter. D156844 was used as a positive control for this assay.

Data set [2] relates to Drosophila. The experiment in a line: Rotenone-induced toxicity, Drosophila model of sporadic Parkinson's disease. In kind it is in vivo. An excerpt: FIGS. 26A-26C illustrate the effect of compound BX in another Parkinson's disease model. Chronic infusion of rotenone to fruit flies reproduces many features of Parkinson disease. Rotenone is a pesticide that inhibits mitochondrial complex I activity, thus creating an environment of oxidative stress in the cell. Many studies have employed rotenone to generate an experimental animal model of Parkinson's disease (PD) that mimics and elicits PD-like symptoms, such as motor and cognitive decline. […] Compound BX therefore protects Drosophila from the neurotoxic effects of rotenone and may prevent oxidative stress in dopaminergic neurons.

Data set [3] relates to rats. Description: Water maze, spatial memory and learning in lithium-pilocarpine treated rats. In kind it is in vivo. The following applies: pilocarpine-induced SE rats. How it is done: To assess spatial memory and learning in lithium-pilocarpine treated animals and to identify novel compounds that might ameliorate cognitive deficits and neuronal loss, rats were tested for their ability to navigate a water maze and find a submerged escape platform based only on their ability to remember and assess only extra maze visual cues. Learning can be assessed by quantifying the time that an animal takes to find the platform (latency) over a number of independent trials. Further, this model is sensitive to the hippocampal damage associated with pilocarpine-induced status epilepticus (SE).

Data set [4] concerns rat dopaminergic N27 cells. Description: N27 protection assay against oxidative stress (H2O2 or MPP+; MTT and LDH). In kind it is cell-based. The following applies: drug 24 hours before 200 μM H2O2 or 640 μM MPP+. In short, it runs like this:
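Protection mode: N27 cells pretreated with drug at various concentrations for 24 hours, then exposed to 200 μM H2O2 or 640 μM MPP+. Recovery mode: cells damaged by H2O2 first, drug applied afterwards. Viability measured by MTT reduction and cytotoxicity by released LDH.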

Data set [5] deals with CYP-450 2A6 (Homo sapiens, UniProt P11509). Description: In vitro human CYP-450 study, 2A6. The following applies: human enzyme. Type of data set: in vitro ADME. The text has this: (§1) On the other hand, it is an inhibitor for 2C19, 2D6, 2A6 and 2C9.
Data set [6] relates to NMDA receptors. Description: Electrophysiology, NMDA current. Type of data set: cell-based. The following applies: at 100 μM [+glycine (1 μM)], holding potential −70 mV. An excerpt: The mechanisms of action of many currently marketed anticonvulsant drugs are not fully understood. Although numerous molecular targets exist wherein anticonvulsants may exert an effect, the final common pathway appears to be through modulation of voltage-gated and/or neurotransmitter-gated ion channels. Thus, the common link among the various proposed mechanisms involves the ability of an anticonvulsant to modulate ion channel function. Presently, a number of prototype anticonvulsants are thought to exert their action (at least in part) by reducing sustained, high-frequency repetitive firing of action potentials by modulating voltage-dependent sodium (Na+) channels. The effect of promising candidate substances on voltage-gated Na+ channels can be assessed using state-of-the-art electrophysiological techniques.

In data set [7] the test system is rats. Description: Hippocampal Kindled Rats model. In kind it is in vivo. As to conditions: Rattus norvegicus.
Data set [8] concerns rats. Description: Gender Neutral test (kindled rats). Type of data set: in vivo.
Data set [9] deals with CYP2C19, CYP2D6, CYP2A6, CYP2C9. The experiment in a line: In vitro human CYP-450 study, Ki values over the enzymes. Type of data set: in vitro ADME. The following applies: range over the enzymes, not assigned to single isoforms.
Excerpt: as §1

Data set [10] has as its system rats. Description: Preliminary Hippocampal Kindling Screening in rats (i.p.). Type of data set: in vivo. As to conditions: at 100 mg/kg.
Data set [11] has as its target CYP-450 2E1 (Homo sapiens, UniProt P05181). Description: In vitro human CYP-450 study, 2E1. Type of data set: in vitro ADME. As to conditions: human enzyme.
Excerpt: as §1

Data set [12] concerns rats. The experiment in a line: Minimal motor impairment (MID50), rats p.o. In kind it is in vivo.
Data set [13] has as its system rats. Description: Lamotrigine-resistant amygdala-kindled rat model (LRM). Type of data set: in vivo. An excerpt: Resistance to Lamotrigine can be induced in rats by treating them with the drug during the kindling acquisition phase (i.e., during kindling development in the epileptogenesis phase). Subsequently, the fully kindled Lamotrigine-refractory rats (i.e., now fully manifesting seizures) are also resistant (cross-tolerant) to carbamazepine, phenytoin, and topiramate, but not to valproate (or diazepam or the clinical Phase III drug candidate, retigabine).
The Lamotrigine-resistant amygdala-kindled rat model (LRM) may thus serve as an early model of drug-resistant (i.e., pharmacoresistant, refractory) epilepsy to identify novel AEDs for further evaluation in more extensive model systems, including the phenytoin-resistant kindled rat
The LRM thus serves to identify novel broad-spectrum AEDs which may be effective in the treatment of drug-resistant epilepsies. Up to 35% of epilepsy patients continue to suffer from uncontrolled seizures because of their drug-resistant epilepsies.

Chain of CYP-450 2A6 (P11509 whole entry): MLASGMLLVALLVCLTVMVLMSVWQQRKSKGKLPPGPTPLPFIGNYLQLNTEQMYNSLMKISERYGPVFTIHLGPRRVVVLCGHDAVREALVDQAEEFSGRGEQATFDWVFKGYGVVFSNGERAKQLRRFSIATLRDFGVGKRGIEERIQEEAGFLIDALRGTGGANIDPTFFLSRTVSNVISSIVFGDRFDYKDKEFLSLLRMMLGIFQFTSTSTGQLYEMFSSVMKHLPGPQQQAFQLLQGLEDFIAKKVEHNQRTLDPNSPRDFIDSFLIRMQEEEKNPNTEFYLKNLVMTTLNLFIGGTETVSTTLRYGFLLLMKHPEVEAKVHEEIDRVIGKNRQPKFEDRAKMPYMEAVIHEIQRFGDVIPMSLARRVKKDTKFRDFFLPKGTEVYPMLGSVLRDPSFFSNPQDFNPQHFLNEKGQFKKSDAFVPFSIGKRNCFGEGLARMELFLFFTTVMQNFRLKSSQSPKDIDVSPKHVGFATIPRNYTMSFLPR
Chain of CYP-450 2E1 (P05181 whole entry): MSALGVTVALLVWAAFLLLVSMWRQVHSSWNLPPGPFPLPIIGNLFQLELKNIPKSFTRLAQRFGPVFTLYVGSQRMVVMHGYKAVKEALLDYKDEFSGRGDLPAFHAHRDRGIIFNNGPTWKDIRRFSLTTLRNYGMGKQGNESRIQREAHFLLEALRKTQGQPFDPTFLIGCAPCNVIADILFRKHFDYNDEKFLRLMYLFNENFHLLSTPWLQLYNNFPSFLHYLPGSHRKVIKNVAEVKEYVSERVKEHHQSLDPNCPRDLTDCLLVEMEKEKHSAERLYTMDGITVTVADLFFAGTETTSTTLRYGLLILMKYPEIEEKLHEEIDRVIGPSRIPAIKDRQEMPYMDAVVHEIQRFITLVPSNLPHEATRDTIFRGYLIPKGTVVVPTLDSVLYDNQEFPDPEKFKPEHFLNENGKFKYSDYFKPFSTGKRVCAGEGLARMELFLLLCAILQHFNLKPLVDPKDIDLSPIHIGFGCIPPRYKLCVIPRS

With `C[C@H](CC(N)=O)c1ccc(OC(F)(F)F)cc1` (single isomer, unassigned) [Compound BX, R-(−)-3-(4-Trifluoromethoxy-phenyl)butyramide], the “SMN2 promoter assay, particularly strong hits” value in data set [1] (NSC34 BLA reporter cells) was “Particularly strong hits”. Besides, the “Promoter (SMN2 promoter test, summary YES/NO)” value in [1] (Table 13 summary) was “YES”. Moreover, the SMN2 promoter activity entry in [1] (treatment for 19 hours at a concentration of 1 μM) was “increased SMN2 promoter activity”. Moreover, in data set [2] (500 μM rotenone), the “survival of Drosophila exposed to rotenone” value is given as “enhances survival”. For the same molecule, the “locomotion speed in rotenone-treated flies” value in [2] (rotenone-treated Drosophila versus mock-treated controls) is “increases locomotion speed in rotenone-treated flies to a level virtually indistinguishable from mock-treated controls”. In [3], the “spatial learning and memory in the water maze task” value was “preserved spatial learning and memory”; the “water maze learning curve in terms of latency” value is “much faster learning curve”. In addition, the “neuroprotective effect against H2O2 and MPP+ oxidative stresses (MTT and LDH assays)” value in data set [4] is “potent dose-dependent neuroprotective effects”.
Regarding `CC(CC(N)=O)c1ccc(OC(F)(F)F)cc1` (racemic) [Compound H, 3-[4-(trifluoromethoxy)-phenyl]butyramide], the “inhibition of CYP-450 2A6” value in data set [5] is “inhibitor”. For the same molecule, the “NMDA current (enhancement)” value in [6] is 119±7 % of control. Further, the 50% effect level in data set [7] (ED50) was put at a dose of 61 mg/kg. Further, the “efficacy in the two genders” value in data set [8] was “equally efficacious in both genders”. This molecule also had an inhibition constant (Ki) in data set [9] of 29 to 174 µM. Also, the “seizure score, Preliminary Hippocampal Kindling Screening” value in data set [10] was “zero”. Also, the “inhibition of CYP-450 2E1” value in [11] is reported as “either no or only a remote possibility of inhibiting”. Further, in data set [12], the MID50 is recorded as greater than 500 mg/kg. Also, the “activity in the LRM” value in data set [13] is “active”.
